≈ marks a conversion by molar mass, not a printed value. Calls of active or inactive are those of the source. No cut-off for these calls is given here.
How the values were obtained:
HCT-116 = experiment: Antiproliferative activity against human HCT116 cells after 72 hrs by MTS assay; format: functional; settings: Homo sapiens, HCT-116, 72 h
Ovis aries = species on record: Ovis aries; experiment: Inhibition of sheep brain tubulin polymerization assessed as reduction in rate of microtubule assembly at 200 uM by DAPI-fluorescence based assay
[1] = Inhibition of sheep brain tubulin polymerization assessed as reduction in rate of microtubule assembly by DAPI-fluorescence based assay; parameters: species or system Ovis aries
[2] = Induction of apoptosis in human BL2 cells assessed as late apoptotic cells at 10 nM after 48 hrs by annexin V-FITC/propidium iodide double staining-based flow cytometry (reference value: 2.1%); format: functional
[3] = Induction of apoptosis in human BL2 cells assessed as early apoptotic cells at 10 nM after 48 hrs by annexin V-FITC/propidium iodide double staining-based flow cytometry (reference value: 8.2%); format: functional
[4] = biological target: T1, Histone deacetylase (Homo sapiens) (UniProt Q13547+O15379+Q9UBN7+Q92769+Q9UQL6+Q8WUI4+Q9BY41+Q96DB2+P56524+Q9UKV0+Q969S8); experiment: Inhibition of HDAC in human HT-29 cells assessed as phosphorylated gamma-H2AX levels at 302 nM after 3 days by Western blot analysis relative to control; format: cell-based
U-87 MG = experiment: Antiproliferative activity against human U87 cells after 72 hrs by MTS assay; format: functional, U-87MG ATCC; settings: Homo sapiens, U-87 MG, 72 h
HT-29 = experiment: Antiproliferative activity against human HT-29 cells after 72 hrs by MTS assay; format: functional; settings: Homo sapiens, HT-29, 72 h
K562 = experiment: Antiproliferative activity against human K562 cells after 72 hrs by MTS assay; format: functional; settings: Homo sapiens, K562, 72 h
[5] = biological target: T2, Protein deacetylase HDAC6 (Homo sapiens) (UniProt Q9UBN7); experiment: Inhibition of HDAC6 in human HT-29 cells assessed as acetylated alpha-tubulin levels at 25 uM after 6 hrs by Western blot analysis relative to control; format: cell-based
T2 sequence (whole entry): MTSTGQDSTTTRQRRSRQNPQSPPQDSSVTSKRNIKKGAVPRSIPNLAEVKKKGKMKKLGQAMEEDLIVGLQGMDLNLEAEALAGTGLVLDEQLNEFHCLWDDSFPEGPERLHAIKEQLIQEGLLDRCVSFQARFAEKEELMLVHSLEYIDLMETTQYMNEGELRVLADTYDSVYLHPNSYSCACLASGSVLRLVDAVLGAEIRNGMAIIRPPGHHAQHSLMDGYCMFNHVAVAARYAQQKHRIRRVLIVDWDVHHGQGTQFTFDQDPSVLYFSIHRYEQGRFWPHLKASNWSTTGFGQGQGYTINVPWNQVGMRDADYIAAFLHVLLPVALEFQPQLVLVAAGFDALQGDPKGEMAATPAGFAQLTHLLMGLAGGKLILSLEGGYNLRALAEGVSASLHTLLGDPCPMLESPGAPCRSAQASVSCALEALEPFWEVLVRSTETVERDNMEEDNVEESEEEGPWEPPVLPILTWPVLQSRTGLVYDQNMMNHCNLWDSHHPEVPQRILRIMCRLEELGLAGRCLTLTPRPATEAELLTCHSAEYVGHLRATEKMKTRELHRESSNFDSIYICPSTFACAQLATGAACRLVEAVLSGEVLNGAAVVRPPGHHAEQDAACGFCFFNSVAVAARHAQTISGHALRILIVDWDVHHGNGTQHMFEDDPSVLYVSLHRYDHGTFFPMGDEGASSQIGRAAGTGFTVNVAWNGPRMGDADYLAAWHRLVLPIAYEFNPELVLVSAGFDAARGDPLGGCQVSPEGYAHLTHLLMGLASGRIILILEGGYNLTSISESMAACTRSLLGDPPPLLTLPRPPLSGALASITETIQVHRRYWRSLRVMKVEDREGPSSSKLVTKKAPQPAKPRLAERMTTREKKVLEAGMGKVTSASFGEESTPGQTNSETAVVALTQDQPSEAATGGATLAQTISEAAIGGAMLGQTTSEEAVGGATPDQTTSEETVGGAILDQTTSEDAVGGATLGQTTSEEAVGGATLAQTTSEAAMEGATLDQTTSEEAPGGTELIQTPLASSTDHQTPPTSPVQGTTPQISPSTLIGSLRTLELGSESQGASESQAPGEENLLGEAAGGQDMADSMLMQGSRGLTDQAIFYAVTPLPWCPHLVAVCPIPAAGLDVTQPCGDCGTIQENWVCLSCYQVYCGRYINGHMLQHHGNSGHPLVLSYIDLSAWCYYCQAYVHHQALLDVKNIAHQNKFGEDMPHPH

[6] = biological target: T3, Protein deacetylase HDAC6 (Homo sapiens, UniProt Q9UBN7)
T3 sequence (Q9UBN7 whole entry): T2 sequence (whole entry)
Description: Inhibition of human recombinant HDAC6 after 30 mins using fluorogenic substrate by fluorimetric assay

K-562R = experiment: Antiproliferative activity against human K562R cells after 72 hrs by MTS assay; format: functional; settings: Homo sapiens, K-562R, 72 h
[7] = biological target: T4, Histone deacetylase 8 (Homo sapiens) (UniProt Q9BY41); experiment: Inhibition of HDAC8 in human HT-29 cells assessed as acetylated SMC3 levels at 25 uM after 6 hrs by Western blot analysis relative to control; format: cell-based
T4 sequence (whole entry): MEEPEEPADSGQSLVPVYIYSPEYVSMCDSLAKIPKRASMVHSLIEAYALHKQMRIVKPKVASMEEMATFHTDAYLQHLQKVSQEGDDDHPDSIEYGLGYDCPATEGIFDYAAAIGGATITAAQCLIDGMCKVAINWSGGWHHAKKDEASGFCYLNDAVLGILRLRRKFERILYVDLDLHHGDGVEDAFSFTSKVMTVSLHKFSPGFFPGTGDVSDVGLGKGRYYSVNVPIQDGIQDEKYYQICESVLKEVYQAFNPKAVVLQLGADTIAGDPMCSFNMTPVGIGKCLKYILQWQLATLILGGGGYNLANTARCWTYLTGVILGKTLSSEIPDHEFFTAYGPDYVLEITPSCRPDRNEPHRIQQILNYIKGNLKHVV

Histone deacetylase 11 = biological target: T5, Histone deacetylase 11 (Homo sapiens, UniProt Q96DB2); experiment: Inhibition of human recombinant HDAC11 after 30 mins using fluorogenic substrate by fluorimetric assay; settings: read-out: IC50
T5 sequence (Q96DB2 whole entry): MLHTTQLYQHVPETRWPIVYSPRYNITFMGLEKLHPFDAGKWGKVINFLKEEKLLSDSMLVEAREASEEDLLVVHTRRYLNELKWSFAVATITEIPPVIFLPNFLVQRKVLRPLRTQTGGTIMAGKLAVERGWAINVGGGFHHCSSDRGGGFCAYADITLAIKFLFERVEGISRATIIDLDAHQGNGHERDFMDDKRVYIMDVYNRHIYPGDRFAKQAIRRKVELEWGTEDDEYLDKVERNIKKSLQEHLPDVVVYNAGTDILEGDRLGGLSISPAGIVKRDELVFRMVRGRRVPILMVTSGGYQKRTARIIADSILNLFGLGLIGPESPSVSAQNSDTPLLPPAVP

[8] = biological target: T4, Histone deacetylase 8 (Homo sapiens); experiment: Inhibition of HDAC8 in human HT-29 cells assessed as acetylated SMC3 levels at 25 uM after 24 hrs by Western blot analysis relative to control; format: cell-based
[9] = Aqueous solubility of the compound; format: physicochemical; settings: water
BXPC-3 = experiment: Antiproliferative activity against human BxPC3 cells after 72 hrs by MTS assay; format: functional; settings: Homo sapiens, BXPC-3, 72 h
[10] = biological target: T1, Histone deacetylase (Homo sapiens); experiment: Inhibition of HDAC in human HT-29 cells assessed as phosphorylated gamma-H2AX levels at 605 nM after 3 days by Western blot analysis relative to control; format: cell-based
MCF7 = experiment: Antiproliferative activity against human MCF7 cells after 72 hrs by MTS assay; format: functional; settings: Homo sapiens, MCF7, 72 h
[11] = biological target: T2, Protein deacetylase HDAC6 (Homo sapiens); experiment: Inhibition of HDAC6 in human HT-29 cells assessed as acetylated alpha-tubulin levels at 25 uM after 24 hrs by Western blot analysis relative to control; format: cell-based
MIA PaCa-2 = experiment: Antiproliferative activity against human MIAPaCa2 cells after 72 hrs by MTS assay; format: functional; settings: Homo sapiens, MIA PaCa-2, 72 h
Histone deacetylase 8 = biological target: T6, Histone deacetylase 8 (Homo sapiens, UniProt Q9BY41); experiment: Inhibition of human recombinant HDAC8 after 30 mins using fluorogenic substrate by fluorimetric assay; settings: read-out: IC50
T6 sequence (Q9BY41 whole entry): T4 sequence (whole entry)

[12] = biological target: T1, Histone deacetylase (Homo sapiens); experiment: Inhibition of HDAC in human HT-29 cells assessed as gamma-H2AX phosphorylation after 3 days by Western blot analysis; format: cell-based
A549 = experiment: Antiproliferative activity against human A549 cells after 72 hrs by MTS assay; format: functional; settings: Homo sapiens, A549, 72 h
PC-3 = experiment: Antiproliferative activity against human PC3 cells after 72 hrs by MTS assay; format: functional; settings: Homo sapiens, PC-3, 72 h
[13] = Lipophilicity, log P of the compound; format: physicochemical; settings: octanol/water; read-out: logP

In the case of `C=C(c1cc(OC)c(OC)c(OC)c1)c1ccc(OC)c(C(=O)Nc2ccccc2N)c1`, the GI50 (HCT-116) is reported as 340 nM and the inhibition (Ovis aries) is reported as “inactive”.
With `C=C(c1ccc(OC)c(OCCCCCCC(=O)NO)c1)c1cc(OC)c(OC)c(OC)c1` the GI50 (HCT-116) was 2500 nM and the inhibition (Ovis aries) was “inactive”.
For `C=C(c1ccc(OC)c(OCC(=O)NO)c1)c1cc(OC)c(OC)c(OC)c1`, the IC50 [1] was 2.4 µM and the GI50 (HCT-116) was 22 nM.
Work on `C=C(c1cc(OC)c(OC)c(OC)c1)c1ccc(OC)c(C(=O)NO)c1` yielded an IC50 [1] of 20 µM and a GI50 (HCT-116) of 233 nM.
With `O=C(CCCCCCC(=O)Nc1ccccc1)NO` [VORINOSTAT] the Activity [2] was 1.8% and the Activity [3] was 6.7%.
Work on `C=C(c1ccc(OC)c(/C=C/C(=O)OC)c1)c1cc(OC)c(OC)c(OC)c1` yielded an IC50 [1] of 4 µM and a GI50 (HCT-116) of 85 nM.
With `C=C(c1ccc(OC)c(C#CCCC(=O)NO)c1)c1cc(OC)c(OC)c(OC)c1` the IC50 [1] was 1.7 µM and the GI50 (HCT-116) was 8 nM.
With `C=C(c1cc(OC)c(OC)c(OC)c1)c1ccc(OC)cc1/C=C/C(=O)NO` the fold change (FC) [4] was 1.3, the GI50 (U-87 MG) was 11 nM and the GI50 (HT-29) was 63.6 nM. For the same compound, the GI50 (K562) was 20 nM, the fold change (FC) [5] was 0.3 and the IC50 [6] was 5 µM. For the same compound, the IC50 [1] was 2.1 µM, the GI50 (K-562R) was 80 nM and the fold change (FC) [7] was 1.6. For the same compound, the IC50 (Histone deacetylase 11) was 8 µM, the fold change (FC) [8] was 2.7 and the solubility [9] was 88.3 µg/mL (≈ 229 µM). The GI50 (BXPC-3) was 25 nM, the fold change (FC) [10] was 2.9 and the GI50 (MCF7) was 17 nM. The fold change (FC) [11] was 0.9, the GI50 (MIA PaCa-2) was 18 nM and the GI50 (HCT-116) was 8 nM. The IC50 (Histone deacetylase 8) was 60 nM, the inhibition [12] was “Dose-dependent effect” and the GI50 (A549) was 22 nM. For the same compound, the GI50 (PC-3) was 28 nM and the logP [13] was 2.13.
Work on `C=C(c1cc(OC)c(OC)c(OC)c1)c1ccc2c(c1)c(/C=C/C(=O)NO)cn2C` yielded an IC50 [6] of 6.9 µM, an IC50 [1] of 3.7 µM and an IC50 (Histone deacetylase 11) of 5 µM. For the same compound, the GI50 (HCT-116) was 14 nM and the IC50 (Histone deacetylase 8) was 240 nM.
For `C=C(c1cc(OC)c(OC)c(OC)c1)c1ccc2c(ccn2CCC(=O)NO)c1`, the IC50 [1] was 22 µM and the GI50 (HCT-116) was 393 nM.
For `C=C(c1ccc(OC)c(C#CCCCC(=O)NO)c1)c1cc(OC)c(OC)c(OC)c1`, the IC50 [1] was 18 µM and the GI50 (HCT-116) was 372 nM.
